Data reported in ChEMBL document CHEMBL3352542, “Synthesis, biological evaluation and molecular modeling study of 2-(1,3,4-thiadiazolyl-thio and 4-methyl-thiazolyl-thio)-quinazolin-4-ones as a new class of DHFR inhibitors” (Bioorg Med Chem Lett, 2014).
Blank lines part the entries; values can stand above or below the molecule they belong to. The source made the active and inactive calls. The rule behind the calls is not given here.

What was measured:
Candida albicans [1] = experiment: Antimicrobial activity against Candida albicans assessed as inhibition of visible growth after 24 hrs by disc-diffusion method; format: functional, organism-based
Staphylococcus aureus [2] = experiment: Antimicrobial activity against Staphylococcus aureus assessed as inhibition zone at 200 ug/disk after 24 hrs by disc-diffusion method; format: functional; settings: read-out: IZ
Candida albicans [3] = experiment: Antimicrobial activity against Candida albicans assessed as inhibition zone at 200 ug/disk after 24 hrs by disc-diffusion method; format: functional; settings: read-out: IZ
Escherichia coli [4] = experiment: Antimicrobial activity against Escherichia coli assessed as inhibition zone at 200 ug/disk after 24 hrs by disc-diffusion method; format: functional; settings: read-out: IZ
Pseudomonas aeruginosa [5] = experiment: Antimicrobial activity against Pseudomonas aeruginosa assessed as inhibition of visible growth after 24 hrs by disc-diffusion method; format: functional, organism-based
Bacillus subtilis [6] = experiment: Antimicrobial activity against Bacillus subtilis assessed as inhibition zone at 200 ug/disk after 24 hrs by disc-diffusion method; format: functional; settings: read-out: IZ
Escherichia coli [7] = experiment: Antimicrobial activity against Escherichia coli assessed as inhibition of visible growth after 24 hrs by disc-diffusion method; format: functional, organism-based
Pseudomonas aeruginosa [8] = experiment: Antimicrobial activity against Pseudomonas aeruginosa assessed as inhibition zone at 200 ug/disk after 24 hrs by disc-diffusion method; format: functional; settings: read-out: IZ
Staphylococcus aureus [9] = experiment: Antimicrobial activity against Staphylococcus aureus assessed as inhibition of visible growth after 24 hrs by disc-diffusion method; format: functional, organism-based
Bacillus subtilis [10] = experiment: Antimicrobial activity against Bacillus subtilis assessed as inhibition of visible growth after 24 hrs by disc-diffusion method; format: functional, organism-based
[11] = Growth inhibition of human SF539 cells at 10 uM after 48 hrs; format: functional; settings: SF-539, 48 h, read-out: GI
A498 = experiment: Growth inhibition of human A498 cells at 10 uM after 48 hrs; format: functional; settings: A498, 48 h, read-out: GI
SR = experiment: Growth inhibition of human SR cells at 10 uM after 48 hrs; format: functional; settings: read-out: GI
[12] = Growth inhibition of human NCI-ADR-RES cells at 10 uM after 48 hrs; format: functional; settings: read-out: GI
[13] = Growth inhibition of human UO31 cells at 10 uM after 48 hrs; format: functional; settings: UO-31, 48 h, read-out: GI
786-0 = experiment: Growth inhibition of human 786-0 cells at 10 uM after 48 hrs; format: functional; settings: 786-0, 48 h, read-out: GI
CAKI-1 = experiment: Growth inhibition of human CAKI-1 cells at 10 uM after 48 hrs; format: functional; settings: CAKI-1, 48 h, read-out: GI
[14] = Growth inhibition of human RXF393 cells at 10 uM after 48 hrs; format: functional; settings: RXF 393, 48 h, read-out: GI
K562 = experiment: Growth inhibition of human K562 cells at 10 uM after 48 hrs; format: functional; settings: K562, 48 h, read-out: GI
SNB-19 = experiment: Growth inhibition of human SNB19 cells at 10 uM after 48 hrs; format: functional; settings: SNB-19, 48 h, read-out: GI
[15] = Growth inhibition of human SF295 cells at 10 uM after 48 hrs; format: functional; settings: SF-295, 48 h, read-out: GI
Dihydrofolate reductase = target: T1, Dihydrofolate reductase (Bos taurus, UniProt P00376); experiment: Inhibition of bovine liver DHFR
T1 sequence (P00376 whole entry): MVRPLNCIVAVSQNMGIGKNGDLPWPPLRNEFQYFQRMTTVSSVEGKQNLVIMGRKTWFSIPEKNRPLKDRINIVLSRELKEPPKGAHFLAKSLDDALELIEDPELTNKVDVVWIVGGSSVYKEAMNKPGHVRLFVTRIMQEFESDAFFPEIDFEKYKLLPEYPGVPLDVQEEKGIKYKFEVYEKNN

[16] = Growth inhibition of human BT549 cells at 10 uM after 48 hrs; format: functional; settings: BT-549, 48 h, read-out: GI
[17] = Growth inhibition of human LOXIMVI cells at 10 uM after 48 hrs; format: functional; settings: LOX IMVI, read-out: GI
SK-MEL-5 = experiment: Growth inhibition of human SK-MEL-5 cells at 10 uM after 48 hrs; format: functional; settings: SK-MEL-5, 48 h, read-out: GI
MDA-MB-231 = experiment: Growth inhibition of human MDA-MB-231 cells at 10 uM after 48 hrs; format: functional; settings: MDA-MB-231, 48 h, read-out: GI
[18] = Growth inhibition of human MOLT4 cells at 10 uM after 48 hrs; format: functional; settings: MOLT-4, 48 h, read-out: GI
KM12 = experiment: Growth inhibition of human KM12 cells at 10 uM after 48 hrs; format: functional; settings: KM12, 48 h, read-out: GI
[19] = Growth inhibition of human OVCAR8 cells at 10 uM after 48 hrs; format: functional; settings: OVCAR-8, 48 h, read-out: GI
[20] = Growth inhibition of human HOP92 cells at 10 uM after 48 hrs; format: functional; settings: HOP-92, 48 h, read-out: GI
A549 = experiment: Growth inhibition of human A549 cells at 10 uM after 48 hrs; format: functional; settings: A549, 48 h, read-out: GI
T47D = experiment: Growth inhibition of human T47D cells at 10 uM after 48 hrs; format: functional; settings: read-out: GI
[21] = Growth inhibition of human UACC257 cells at 10 uM after 48 hrs; format: functional; settings: UACC-257, 48 h, read-out: GI
SN12C = experiment: Growth inhibition of human SN12C cells at 10 uM after 48 hrs; format: functional; settings: read-out: GI
[22] = Growth inhibition of human OVCAR5 cells at 10 uM after 48 hrs; format: functional; settings: OVCAR-5, 48 h, read-out: GI
[23] = Growth inhibition of human HCT116 cells at 10 uM after 48 hrs; format: functional; settings: HCT-116, 48 h, read-out: GI
[24] = Growth inhibition of human HCT15 cells at 10 uM after 48 hrs; format: functional; settings: HCT-15, 48 h, read-out: GI
[25] = Growth inhibition of human UACC62 cells at 10 uM after 48 hrs; format: functional; settings: UACC-62, 48 h, read-out: GI
M14 = experiment: Growth inhibition of human M14 cells at 10 uM after 48 hrs; format: functional; settings: M14, 48 h, read-out: GI
HT-29 = experiment: Growth inhibition of human HT-29 cells at 10 uM after 48 hrs; format: functional; settings: HT-29, 48 h, read-out: GI
[26] = Growth inhibition of human PC3 cells at 10 uM after 48 hrs; format: functional; settings: PC-3, 48 h, read-out: GI
U-251 = experiment: Growth inhibition of human U251 cells at 10 uM after 48 hrs; format: functional; settings: U-251, 48 h, read-out: GI
NCI-H23 = experiment: Growth inhibition of human NCI-H23 cells at 10 uM after 48 hrs; format: functional; settings: NCI-H23, 48 h, read-out: GI
[27] = Growth inhibition of human Hs 578T cells at 10 uM after 48 hrs; format: functional; settings: read-out: GI
SF-268 = experiment: Growth inhibition of human SF268 cells at 10 uM after 48 hrs; format: functional; settings: SF-268, 48 h, read-out: GI
[28] = Growth inhibition of human OVCAR3 cells at 10 uM after 48 hrs; format: functional; settings: OVCAR-3, 48 h, read-out: GI
Malme-3M = experiment: Growth inhibition of human MALME-3M cells at 10 uM after 48 hrs; format: functional; settings: read-out: GI
[29] = Growth inhibition of human OVCAR4 cells at 10 uM after 48 hrs; format: functional; settings: OVCAR-4, 48 h, read-out: GI
NCI-H522 = experiment: Growth inhibition of human NCI-H522 cells at 10 uM after 48 hrs; format: functional; settings: NCI-H522, 48 h, read-out: GI
NCI-H226 = experiment: Growth inhibition of human NCI-H226 cells at 10 uM after 48 hrs; format: functional; settings: NCI-H226, 48 h, read-out: GI
[30] = Growth inhibition of human RPMI8226 cells at 10 uM after 48 hrs; format: functional; settings: RPMI-8226, 48 h, read-out: GI

SMILES: CC(=O)NS(=O)(=O)c1ccc(N)cc1 [SULFACETAMIDE]
- Activity (Candida albicans [1]): Active
- zone of inhibition at 200 µg/disc (Staphylococcus aureus [2]): 20 mm
- zone of inhibition at 200 µg/disc (Candida albicans [3]): 25 mm
- zone of inhibition at 200 µg/disc (Escherichia coli [4]): 18 mm
- Activity (Pseudomonas aeruginosa [5]): Active
- zone of inhibition at 200 µg/disc (Bacillus subtilis [6]): 22 mm
- Activity (Escherichia coli [7]): Active
- zone of inhibition at 200 µg/disc (Pseudomonas aeruginosa [8]): 28 mm
- Activity (Staphylococcus aureus [9]): Active
- Activity (Bacillus subtilis [10]): Active

SMILES: Cc1ccc2nc(Sc3sc(N)nc3C)n(-c3ccc(Cl)cc3)c(=O)c2c1
- inhibition of growth at 10 µM [11]: 13.9%
- inhibition of growth at 10 µM (A498): 53%
- inhibition of growth at 10 µM (SR): 49.2%
- inhibition of growth at 10 µM [12]: 17.5%
- zone of inhibition at 200 µg/disc (Staphylococcus aureus [2]): 8 mm
- inhibition of growth at 10 µM [13]: 46%
- zone of inhibition at 200 µg/disc (Candida albicans [3]): 8 mm
- inhibition of growth at 10 µM (786-0): 29.3%
- inhibition of growth at 10 µM (CAKI-1): 11.2%
- inhibition of growth at 10 µM [14]: 28.5%
- inhibition of growth at 10 µM (K562): 15.6%
- inhibition of growth at 10 µM (SNB-19): 11.6%
- inhibition of growth at 10 µM [15]: 18.2%
- IC50 (Dihydrofolate reductase): 7 µM
- inhibition of growth at 10 µM [16]: 33.1%
- zone of inhibition at 200 µg/disc (Escherichia coli [4]): 8 mm
- inhibition of growth at 10 µM [17]: 16.5%
- inhibition of growth at 10 µM (SK-MEL-5): 16.3%
- inhibition of growth at 10 µM (MDA-MB-231): 13%
- inhibition of growth at 10 µM [18]: 19%
- inhibition of growth at 10 µM (KM12): 24.6%
- zone of inhibition at 200 µg/disc (Bacillus subtilis [6]): 8 mm
- inhibition of growth at 10 µM [19]: 10.8%
- inhibition of growth at 10 µM [20]: 43.3%
- inhibition of growth at 10 µM (A549): 16.9%
- inhibition of growth at 10 µM (T47D): 12.4%
- inhibition of growth at 10 µM [21]: 13.6%
- zone of inhibition at 200 µg/disc (Pseudomonas aeruginosa [8]): 8 mm
- inhibition of growth at 10 µM (SN12C): 12.8%
- inhibition of growth at 10 µM [22]: 12.1%
- inhibition of growth at 10 µM [23]: 22.8%
- inhibition of growth at 10 µM [24]: 27.7%
- inhibition of growth at 10 µM [25]: 26%
- inhibition of growth at 10 µM (M14): 15.6%
- inhibition of growth at 10 µM (HT-29): 11.7%
- inhibition of growth at 10 µM [26]: 28.6%
- inhibition of growth at 10 µM (U-251): 21.5%
- inhibition of growth at 10 µM (NCI-H23): 10.1%
- inhibition of growth at 10 µM [27]: 12.6%
- inhibition of growth at 10 µM (SF-268): 13.2%

- IC50 (Dihydrofolate reductase): 5 µM
SMILES: Cc1nc(N)sc1Sc1nc2ccc(Cl)cc2c(=O)n1Cc1ccccc1
- inhibition of growth at 10 µM (SR): 16.1%
- zone of inhibition at 200 µg/disc (Staphylococcus aureus [2]): 18 mm
- inhibition of growth at 10 µM [13]: 36.4%
- zone of inhibition at 200 µg/disc (Candida albicans [3]): 8 mm
- inhibition of growth at 10 µM (K562): 17.6%
- inhibition of growth at 10 µM [28]: 14.9%
- inhibition of growth at 10 µM (Malme-3M): 15.9%
- zone of inhibition at 200 µg/disc (Escherichia coli [4]): 12 mm
- inhibition of growth at 10 µM [29]: 20.9%
- inhibition of growth at 10 µM [17]: 23.2%
- inhibition of growth at 10 µM [18]: 16%
- inhibition of growth at 10 µM (NCI-H522): 35.4%
- zone of inhibition at 200 µg/disc (Bacillus subtilis [6]): 19 mm
- inhibition of growth at 10 µM [20]: 16.8%
- inhibition of growth at 10 µM (NCI-H226): 10.4%
- inhibition of growth at 10 µM (T47D): 14.7%
- zone of inhibition at 200 µg/disc (Pseudomonas aeruginosa [8]): 8 mm
- Activity (Staphylococcus aureus [9]): Active
- Activity (Bacillus subtilis [10]): Active
- inhibition of growth at 10 µM [25]: 15.2%
- inhibition of growth at 10 µM [26]: 15.8%
- inhibition of growth at 10 µM [30]: 20.8%
- inhibition of growth at 10 µM (NCI-H23): 13.6%
- inhibition of growth at 10 µM (SF-268): 13.3%
